Laboratory results published in patent EP0755382B1, “QUINOLONE DERIVATIVE FOR TREATMENT OF URINARY INCONTINENCE” (AstraZeneca AB, priority 1994, dated 1995).
One block for each compound: values may come before it.

Tests used:
intestinal smooth muscle = conditions: Vitolinya et al, Khim.-Farm. Zh., 15(1), 39-42, 1981; cited from earlier work
bladder = assay: in vivo test in conscious catheterized rats: interval between bladder contractions, heart rate and MAP after oral dosing; design: species or system Wistar rats; conditions: dosed orally, 3 mg/kg
Method: Hale Wistar rats (400 - 500 g) are anesthetized with 50 mg/kg Nembutal, i.p. For each rat, the abdominal region and the front and back of the neck are shaved and povidone-iodine is applied to the skin. For carotid catheterization, the left carotid artery is exposed via a small ventral cervical incision. The exposed area is flushed with a 2% lidocaine HCl solution to relax the vessel. The catheter, filled with 0.9% saline, is introduced approximately 2.4 cm into the artery so that its tip resided in the aortic arch. The distal end of the catheter is exteriorized at the nape of the neck, filled with heparin (1000 units/ml) and heat sealed. For bladder catheterization, the bladder is exposed through a midline abdominal incision. […]
The rats are weighed, orally sham-dosed (dosing needle introduced, but no fluid expelled), and transvesical saline infusion (.18 ml/min) is begun and continued throughout the experiment. Variations in blood pressure, heart rate, intravesical pressure and urine output are recorded on either a Grass Polygraph or a Gould TA4000 recording system. […] At this point, a basal level of each experimental parameter is recorded and the rats are administered by oral gavage the appropriate dose of compound (in a 75% PEG 400 - saline vehicle) in concentrations such that the volume is 1 ml/kg body weight. […]

[1] = system: guinea pig detrusor strips; assay: first in vitro test: relaxation of guinea pig bladder detrusor strips contracted with 15 mM KCl; format: cell-based, guinea pigs; conditions: Cavia porcellus
From the text: The actions of the compound as a smooth muscle relaxant useful as a therapeutic agent for the treatment of urinary incontinence through its action to open potassium channels and hyperpolarize the membrane potential in the bladder detrusor smooth muscle can be shown using suitably designed in vitro tests, such as the one described following. […] "IC50" is a well understood term and means the concentration of test compound which causes a 50% decrease in the in vitro contraction of the bladder tissue described in the following test.
Hale albino Hartley guinea pigs (450-500g) are sacrificed by carbon dioxide induced asphyxiation and quickly exsanguinated. The lower abdominal cavity is opened and the urinary bladder isolated. The bladder is cleaned of surrounding connective and adipose tissue, and the portion above the ureteral orifices is removed and washed in Krebs-Henseleit buffer solution of the following composition (in mH): NaCl 118.0, KCl 4.7, […] 1.2, KH2PO4 1.2, CaCl2 2.5, NaHCO3 25.0 and d-glucose 11.1. The solution is warmed to 37°C and gassed with 95% O2 and 5% CO2. […]
When the tissue relaxes to a steady state after the final washing, 15 mM KCl is again applied. […] The effect of the compound at each dose is expressed as % of the maximum inhibitory response, which is further normalized with respect to the corresponding effect of the compound vehicle control. […]

[2] = system: guinea pig detrusor strips; assay: second in vitro test: relaxation of guinea pig bladder detrusor strips contracted with 80 mM KCl; format: cell-based, guinea pigs; conditions: for potency in the second test compared with the first test: 80 mM KCl (second test) versus 15 mM KCl (first test)
Method: This second in vitro test is similar to the one described above with regard to tissue preparation and data acquisition. However, the following exceptions are noted. In this second test, the contraction of the detrusor strips during priming and after the equilibration period is achieved with 80 mM instead of 15 mM KCl (total concentration in the bath).
Typical calcium channel blockers like nifedipine, nimodipine, isradipine, and verapamil are able to relax and reduce the myogenic activity of guinea pig detrusor strips in both tests by virtue of their blocking action on calcium channels.

urinary incontinence = conditions: preliminary clinical trial; Nurse et al., British Journal of Urology (1991), 68, 27-31; cited from earlier work

Structure (SMILES): CC1=C(C#N)C(c2ccccc2)C2=C(CC(C)(C)CC2=O)N1 (centres unmarked) [3-Cyano-4-phenyl-2,7,7-trimethyl-4,6,7,8-tetrahydro-5(1H)-quinolone]
effect on the cardiovascular system (intestinal smooth muscle): hypotensive properties
spasmogenic effect of acetylcholine and barium chloride on intestinal smooth muscle (intestinal smooth muscle): capable of blocking the spasmogenic effect

IC50 ([1]; concentration causing a 50% decrease in the in vitro contraction of the bladder tissue): 4.2 µM
IC50 ([2]; Cavia porcellus, second test, 80 mM KCl): 41.1 µM
Structure (SMILES): N#Cc1cccc([C@@H]2C=C(C(F)(F)F)NC3=C2C(=O)CCC3)c1 [The compound, (S)-(-)-4-(3-Cyanophenyl)-2-trifluoromethyl-4,6,7,8-tetrahydro-5(1H)-quinolone]
activity and selectivity for the bladder (bladder): active and selective for the bladder without significant cardiovascular effects

IC50 ([1]; first test): 0.6 to 0.9 µM
Structure (SMILES): CC1(C)Oc2ccc(C#N)cc2C(N2CCCC2=O)C1O (centres unmarked) [cromakalim]
treatment of urinary incontinence (urinary incontinence): effective
relaxant activity ([2]; second test, 80 mM KCl, at concentrations as high as 30 µM): insignificant relaxant activity

Structure (SMILES): COC(=O)C1=C(C)NC(C)=C(C(=O)OC(C)C)C1c1cccc2nonc12 (centres unmarked) [isradipine]
potency in the second test compared with the first test [2]: more potent in the second test

Structure (SMILES): COc1ccc(Cc2nccc3cc(OC)c(OC)cc23)cc1OC [papaverine]
sustained tension after high KCl stimulation ([2]; 80 mM KCl, 300 µM): totally abolished

Structure (SMILES): COc1ccc(CCN(C)CCCC(C#N)(c2ccc(OC)c(OC)c2)C(C)C)cc1OC (centres unmarked) [verapamil]
potency in the second test compared with the first test [2]: more potent in the second test
